# Several values for one entry are separate records, joined by “and”; a condition that tells them apart may be missing. Equal entries are not always repeated. Marks after values point to notes of the source that are not given here.
# Assays:
# [1] = tested on: CYP3A; assay: clinical; conditions: for AUC: 0.2 mg midazolam i.v., zero to infinity; for AUC, mean / Intra-individual (between-days) mean coefficient of variation: three occasions; for AUC420: dose to 420 min
# Procedure: Midazolam was administered as a 2 min intravenous infusion with a total dose of 0.2 mg. The phenotyping test with midazolam was performed on three different occasions with a time interval of at least 1 week and maximally 3 months.
# Pharmacokinetic parameters were estimated by non-compartmental analyses using the WinNonlin software (Pharsight Corporation, Mountain View, United States). The AUC from zero to infinity (AUC), was calculated by the linear/log trapezoidal rule and using the terminal elimination rate constant (lambda z). […] Total plasma clearance (Cl) after administration of midazolam was calculated as the ratio dose over AUC. Time (tmax) and amount of maximum plasma concentration (Cmax) were given as measured and the terminal half-life (t1/2) was calculated as t1/2 = ln(2)/lambda z.
# [2] = tested on: CYP3A; assay: Within- and between-subject variance and genetic component (Kalow) of the 4 CYP3A biomarkers, three occasions; conditions: for Genetic component: from intra- and inter-individual variation, independent of twin status, AUC, plasma concentration or 24-h urine Ae
# Procedure: (§1) Predefined primary endpoint was midazolam AUC. All concentrations and pharmacokinetic parameters were determined on three independent occasions to compare intra- versus interindividual variation. […] In structural equation modeling of heritability and in the other multifactorial analyses the individual means from the measurements or parameters obtained on the three occasions were used. Using structural equation analysis, variation was separated into additive genetic (A), common environmental (C), and unique environmental (E) effects. The heritability is the proportion of the variance resulting from the genetic effect (A). In order to investigate the genetic, common environmental, and unique environmental effects of the different traits taken into account, the possible correlation between traits were fitted in multivariate ACE, AE, and CE biometrical models using the mcglm package for multivariate regression analysis in R. As an exploratory analysis, we computed the correlation between MZ and DZ twins based on an unstructured (equal mean and variance for MZ and DZ twins) model. In all models, the mean structure for each trait was specified as a linear function of the covariates age and sex.
# [3] = tested on: CYP3A; assay: Twin correlations and structural equation modeling (ACE, AE, CE) of heritability of the CYP3A biomarkers; conditions: for rdz (correlation between DZ twins) / rmz (correlation between MZ twins): unstructured model
# Procedure: as §1
# [4] = tested on: CYP3A; assay: Multifactorial analysis of genetic and environmental effects on the CYP3A probe drugs and biomarkers; conditions: in vivo
# Procedure: DNA was isolated from whole venous blood by automated solid phase extraction with the EZ1^TM DNA Blood 350 μl Kit using the Bio-robot EZ1^TM (both Qiagen, Hilden, Germany). The CYP3A4^∗1b and ^∗22 alleles as well as the CYP3A5^∗1/^∗3 polymorphism were genotyped by DNA sequencing using fluorescence-labeled dideoxynucleotides and detection via Gene Mapper v3.7 Software® (Applied Biosystems®, Foster City, United States). Zygosity was assessed by analyzing variants in 23 polymorphic genes. Monozygosity was concluded when there were no differences regarding the polymorphisms in both siblings of one twin pair.
# as §1
# [5] = tested on: CYP3A; assay: Endogenous CYP3A biomarker in plasma: cholesterol and 4ß-OH-cholesterol (GC-MS, baseline blood samples); conditions: for Plasma concentration / Ratio (cholesterol): value (range); for Ratio (cholesterol): plasma
# Procedure: Briefly, 10 μl of plasma were spiked with 10 μg of cholesterol-d5 as internal standard. After saponification with 0.5 ml of 1 M NaOH in 90% ethanol at 70°C for 1 h, 250 μl of water were added and the samples extracted with 2 ml of n-hexane. An aliquot of 50 μl of the extract was evaporated to dryness and derivatized with 20 μl of N,O-bis(trimethylsilyl)trifluoroacetamide (BSTFA) for 30 min at room temperature.
# Briefly, 1 ml of plasma was spiked with 10 μg of BHT and 50 ng of the internal standard 4ß-hydroxycholesterol-d4 and saponified with 2.5 ml of 1 M NaOH in 90% ethanol at 70°C for 1 h under argon and then extracted with 1 ml of water and 5 ml of chloroform. The chloroform phase was evaporated to dryness in a stream of nitrogen and the residue dissolved in 1 ml of toluene. […] The cartridges were washed with 1 ml of hexane and 10 ml of 2-propanol in hexane (0.5% v/v) and then eluted with 2 ml of 2-propanol in hexane (30% v/v). The eluate was evaporated to dryness in a stream of nitrogen and derivatized with 20 μl of BSTFA for 30 min at room temperature. GC was performed on a J&W DB-5MS column (25 m, 0.2 mm i.d., 0.33 μm film thickness; Agilent) in the splitless mode. For the analysis of cholesterol, the GC oven program started at 150°C and was held for 1 min. […] For the analysis of 4ß-hydroxycholesterol the GC oven program startet at 150°C and was held for 1 min. Temperature was increased with 10°C/min to 250°C, then with 30°C/min to 300°C.
# [6] = other studies; ref Diczfalusy et al., 2008; cited from earlier work
# [7] = tested on: CYP3A; assay: Endogenous CYP3A biomarker in 24-h urine: cortisol and 6ß-OH-cortisol (LC-MS-MS); conditions: value (range); for Amount in urine: 24 h urine; for Ratio (cortisol): urine
# Procedure: Cholesterol and 4ß-OH cholesterol were measured in the baseline blood samples before drug administration. All samples were centrifuged for 10 min (4000 rpm) at 4°C and the plasma was stored at −20°C.
# Calibration samples for cholesterol were prepared in isooctane with 10% 2-propanol in the concentration range from 1 to 30 μg. Calibration samples for 4ß-hydroxycholesterol were prepared in isooctane with 0.8% 2-propanol from 5 to 100 ng. […] Calibration samples were worked up as the samples, and analyzed together with the unknown samples. […] The concentration in unknown samples was obtained from the regression line.
# [8] = ref Heizmann et al., 1983; cited from earlier work
# [9] = tested on: CYP3A; conditions: cited from earlier work; for CYP3A activity increased: in vivo
compound,measurement,setting,value
"OCc1ncc2n1-c1ccc(Cl)cc1C(c1ccccc1F)=NC2 [1-OH-midazolam, 1′-hydroxymidazolam]",AUC,"[1]; DZ twins, value (range)",73.31 (30.95 – 322.8) μg * min/L
same,Ratio 1-OH-midazolam/midazolam (AUC),"[1]; DZ twins, value (range)",0.17 (0.07 – 0.54)
same,AUC,"[1]; MZ twins, value (range)",66.88 (33.75 – 195.6) μg * min/L
same,Ratio 1-OH-midazolam/midazolam (AUC),"[1]; MZ twins, value (range)",0.15 (0.09 – 0.61)
same,"AUC, inter-individual range",[1]; all subjects,30.95 – 322.8 μg∗min/L
same,Inter-individual variation in AUC,[1]; all subjects,10.4 fold
same,"AUC, mean",[1]; all subjects,86.2 µg·min/L
same,Intra-individual (between-days) mean coefficient of variation,[1],12.3%
same,Genetic component,[2],0.93 and 0.931
same,Variation that may be due to genetic factors (from genetic component),"[2]; human, in vivo",up to 93%
same,C^2 (common environmental effect),[3]; ACE model,0.21 (0.23)
same,H^2 (heritability),[3]; ACE model,0.73 (0.23)*
same,Variation due to additive genetic (inherited) effects,[3]; ACE model,73%
same,H^2 (heritability),[3]; AE model,0.94 (0.01)*
same,C^2 (common environmental effect),[3]; CE model,0.78 (0.04)*
same,rdz (correlation between DZ twins),[3],0.59 (0.11)*
same,rmz (correlation between MZ twins),[3],0.94 (0.01)*
same,"Coefficient, CYP3A4*22",[4],−12.53
same,"Coefficient, CYP3A5*3",[4],29.27
same,"Coefficient, age",[4],−1.78
same,"Coefficient, lean body weight",[4],−1.74.
same,"Coefficient, sex",[4],11.79
same,"Coefficient, smoking status",[4],1.46
same,"Coefficient, oral contraceptives",[4],−31.33
"CC(C)CCC[C@@H](C)[C@H]1CC[C@H]2[C@@H]3CC=C4[C@@H](O)[C@@H](O)CC[C@]4(C)[C@H]3CC[C@]12C [4ß-OH-cholesterol, 4ß-hydroxycholesterol]",Plasma concentration,[5]; DZ twins,23.07 (15.12 – 46.77) ng/ml
same,Plasma concentration,[5]; MZ twins,24.56 (12.59 – 62.96) ng/ml
same,"Plasma concentration, mean","[5]; all subjects, three occasions",25.9 ng/mL
same,Median plasma level,[5]; heterozygous carriers of active CYP3A5*1,30.69 ng/mL
same,Median plasma level,[5]; homozygous carriers of CYP3A5*3,23.01 ng/mL
same,Genetic component,[2],0.812
same,Variance between subjects (Varb) of plasma concentration,"[2]; human, in vivo",86.5 ng/mL
same,Variance within subjects (Varw) of plasma concentration,[2]; three occasions,14.3 ng/mL
same,C^2 (common environmental effect),[3]; ACE model,0.22 (0.26)
same,H^2 (heritability),[3]; ACE model,0.56 (0.26)*
same,Variation due to additive genetic (inherited) effects,[3]; ACE model,56%
same,H^2 (heritability),[3]; AE model,0.79 (0.04)*
same,C^2 (common environmental effect),[3]; CE model,0.74 (0.04)*
same,rdz (correlation between DZ twins),[3],0.53 (0.12)*
same,rmz (correlation between MZ twins),[3],0.79 (0.04)*
same,"Coefficient, CYP3A4*22",[4]; human,−8.21
same,"Coefficient, CYP3A5*3",[4]; human,−6.30
same,"Coefficient, age",[4]; human,0.16
same,"Coefficient, sex",[4]; human,−3.32
same,"Coefficient, lean body weight","[4]; human, 0.2 mg",−0.20
same,"Coefficient, smoking status","[4]; human, 0.2 mg",3.28
same,"Coefficient, oral contraceptives","[4]; human, 0.2 mg",−2.57
same,half-life,[6],≥ 408 h
"CC(C)CCC[C@@H](C)[C@H]1CC[C@H]2[C@@H]3CC=C4C[C@@H](O)CC[C@]4(C)[C@H]3CC[C@]12C [Cholesterol, cholesterol]",Ratio (cholesterol),[5]; DZ twins,0.17 (0.12 – 0.25)
same,Plasma concentration,[5]; DZ twins,1.38 (0.94 – 2.12) mg/ml
same,Ratio (cholesterol),[5]; MZ twins,0.17 (0.01 – 0.35)
same,Plasma concentration,[5]; MZ twins,1.39 (0.86 – 1.99) mg/ml
"C[C@]12CCC(=O)C=C1CC[C@@H]1[C@@H]2[C@@H](O)C[C@@]2(C)[C@H]1CC[C@]2(O)C(=O)CO [Cortisol, cortisol]",Amount in urine,[7]; DZ twins,32.14 (11.10 – 90.00) μg
same,Ratio (cortisol),[7]; DZ twins,6.75 (3.38 – 18.22)
same,Amount in urine,[7]; MZ twins,35.85 (10.05 – 142.80) μg
same,Ratio (cortisol),[7]; MZ twins,6.29 (3.09 – 14.65)
"Cc1ncc2n1-c1ccc(Cl)cc1C(c1ccccc1F)=NC2 [Midazolam, midazolam]",Median AUC,[1]; *1/*1 and *1/*1B genotypes (n = 110),439.1 μg ∗ min/L
same,AUC,"[1]; DZ twins, value (range)",431.0 (287.8 – 640.7) μg * min/L
same,AUC420,"[1]; DZ twins, value (range)",354.8 (240.0 – 542.9) μg * min/L
same,tmax,"[1]; DZ twins, value (range)",10 (10 – 19) min
same,AUC,"[1]; MZ twins, value (range)",450.3 (290.3 – 897.4) μg * min/L
same,AUC420,"[1]; MZ twins, value (range)",378.6 (255.8 – 636.4) μg * min/L
same,"AUC, inter-individual range",[1]; all subjects,288 – 897.4 μg∗min/L
same,Inter-individual variation in AUC,[1]; all subjects,3.1 fold
same,"AUC, mean",[1]; all subjects,464.0 µg·min/L
same,Median AUC,[1]; daily fruit consumption,425.4 μg ∗ min/L
same,Median AUC,[1]; heterozygous carriers of CYP3A4*22 (n = 4),595.1 μg ∗ min/L
same,tmax,"[1]; human, plasma, intravenous, 0.2 mg",0.167 h
same,clearance,"[1]; human, plasma, intravenous, 0.2 mg, Cl, DZ twins, total plasma clearance, value (range)",480 mL/min
same,clearance,"[1]; human, plasma, intravenous, 0.2 mg, Cl, DZ twins, value (range)",6.74 mL/min/kg
same,clearance,"[1]; human, plasma, intravenous, 0.2 mg, Cl, MZ twins, total plasma clearance, value (range)",450 mL/min
same,clearance,"[1]; human, plasma, intravenous, 0.2 mg, Cl, MZ twins, value (range)",6.8 mL/min/kg
same,clearance,"[1]; human, plasma, intravenous, 0.2 mg, Clearance, summary in discussion (Table 2)",~500 mL/min
same,Cmax,"[1]; human, plasma, intravenous, 0.2 mg, DZ twins, value (range)",3.76 ng/mL
same,Cmax,"[1]; human, plasma, intravenous, 0.2 mg, MZ twins, value (range)",4.11 ng/mL
same,half-life,"[1]; human, plasma, intravenous, 0.2 mg, Elimination half-life, summary in discussion (Table 2)",~2 h
same,half-life,"[1]; human, plasma, intravenous, 0.2 mg, t1/2, DZ twins, terminal half-life, value (range)",3.08 h
same,half-life,"[1]; human, plasma, intravenous, 0.2 mg, t1/2, MZ twins, terminal half-life, value (range)",2.72 h
same,AUC higher in male than in female subjects,[1]; median,8%
same,Variation of plasma concentrations between subjects,"[1]; one study day, all subjects",about 10 fold
same,Median AUC,[1]; rare fruit consumption,519.4 μg ∗ min/L
same,Intra-individual (between-days) mean coefficient of variation,[1],11.3%
same,Median AUC,[1]; thrice weekly fruit consumption,446.9 μg ∗ min/L
same,Median AUC,[1]; very rare fruit consumption,558.9 μg ∗ min/L
same,Genetic component,[2],0.612
same,Variation that may be due to genetic factors (from genetic component),"[2]; human, in vivo",up to 61%
same,C^2 (common environmental effect),[3]; ACE model,0.48 (0.24)*
same,H^2 (heritability),[3]; ACE model,0.15 (0.25)
same,Variation attributed to common environmental factors,[3]; ACE model,48%
same,Variation due to additive genetic (inherited) effects,[3]; ACE model,15%
same,H^2 (heritability),[3]; AE model,0.63 (0.06)*
same,C^2 (common environmental effect),[3]; CE model,0.60 (0.06)*
same,rdz (correlation between DZ twins),[3],0.52 (0.13)*
same,rmz (correlation between MZ twins),[3],0.66 (0.06)*
same,"Coefficient, CYP3A4*22",[4]; human,169.57
same,"Coefficient, CYP3A5*3",[4]; human,32.33
same,"Coefficient, age",[4]; human,−0.60
same,"Coefficient, sex",[4]; human,74.51
same,"Coefficient, lean body weight","[4]; human, 0.2 mg",−7.29
same,"Coefficient, smoking status","[4]; human, 0.2 mg",−21.79
same,"Coefficient, oral contraceptives","[4]; human, 0.2 mg",−63.18
same,Fraction of midazolam eliminated as 1-OH-midazolam,[8],Approximately 75%
NC(=O)N1c2ccccc2C=Cc2ccccc21 [carbamazepin],CYP3A activity increased,[9],up to 10 fold
CCC(C)n1ncn(-c2ccc(N3CCN(c4ccc(OCC5COC(Cn6cncn6)(c6ccc(Cl)cc6Cl)O5)cc4)CC3)cc2)c1=O (centres unmarked) [itraconazole],CYP3A activity reduced to,"[9]; strong inhibitors, ref Kim et al., 2006, Greenblatt and Harmatz, 2015",10%
CCC1(c2ccccc2)C(=O)NC(=O)NC1=O [phenobarbital],CYP3A activity increased,[9],up to 10 fold
